# Test results from patent US20120029037A1, “ANIMAL ECTOPARASITE-CONTROLLING AGENT” (SUMITOMO CHEMICAL COMPANY, LIMITED, priority 2010, published 2012).
# Tests used:
# Assay type in all cases: in vivo
# [1] = tested on: Ticks (Haemaphysalis longicornis); test: Pesticidal activity on ticks in filter paper test; settings: 48 h, 100 mg/m^2, non-blood-fed young ticks, 2 days later
# Experimental: Pesticidal Activity on Ticks (Haemaphysalis longicornis) in Filter Paper Test
# Each (5 mg) of the present hydrazide compounds (5), (8), (11) and (12) was dissolved in acetone (10 mL), and this acetone solution (1 mL) was uniformly applied onto one side of a filter paper (TOYO No. 2; 5×10 cm; the surface area of the filter paper was 50 cm^2, and thus the amount of the present hydrazide compound applied was 100 mg/m^2). After drying, said filter paper was folded, and the both sides of the paper were clipped to form a bag. Into this bag, test ticks (Haemaphysalis longicornis, non-blood-fed young ticks, 10 ticks/group) were added, and the opening was clipped to seal the bag. Two (2) days later, the number of dead ticks was examined and the mortality was calculated by the following formula:
# Mortality (%)=100×(number of dead ticks/number of ticks tested)
# [2] = tested on: Dog-infested ticks (Haemaphysalis longicornis); test: Dropping application against dog-infested ticks; settings: dropping on skin, 16 days after application, vs placebo group
# Experimental: Propping Application Against Dog-Infested Ticks (Haemaphysalis longicornis)
# (§1) The present hydrazide compound (5) (0.75 or 1.5 g) was dissolved in diethylene glycol monoethyl ether (6.0 g) to prepare a test solution. Said test solution was directly dropped on the skin of the neck and back of the dog while pushing aside fur thereon at a rate of 0.1 ml per 1 kg of the dog's body weight (dose amount: 10 or 20 mg/kg). This is referred to as a test group. On the other hand, diethylene glycol monoethyl ether alone was applied dropwise to a placebo group.
# Fourteen (14) days later, 100 test ticks were deposited on each dog. Two (2) days after the deposit, the number of living ticks, which were infesting the dogs, was examined. When the examination was completed, all infested ticks were removed from the dogs. The infestation rate and control rate were calculated by the following formulae: […]
# Method of calculating infestation rate and control rate at 16 days after the application:
# Infestation rate (%) at X days after application=(number of living ticks at X days/number of ticks deposited)×100
# Control rate (%) at X days after the application=(infestation rate of placebo group at X days−infestation rate of test group at X days)/infestation rate of placebo group at X days×100
# (§2) In addition, if an infestation rate of a test group is higher than a placebo group, then the control rate is deemed to be 0%.
# [3] = tested on: Mouse-infested ticks (Haemaphysalis longicornis); test: Dropping application against mouse-infested ticks; settings: 0.1% w/v solution 200 μL dropwise to whole body surface, 2 days after application
# Experimental: Propping Application Against Mouse-Infested Ticks (Haemaphysalis longicornis)
# The previous day before dropping application, 30 test ticks (Haemaphysalis longicornis, young ticks) were deposited on a mouse. Before the dropping application, uninfested ticks were removed.
# The present hydrazide compound (5) (5 mg) was dissolved in a mixture (5 mL) of propylene carbonate and diethylene glycol monoethyl ether in equal amounts to prepare a 0.1% w/v solution. Said solution (200 μL) was applied dropwise to the whole body surface of a mouse with a pipette. To a control group, the mixture (200 μL) alone was applied. Each application was repeated 3 times per group.
# Two (2) days after the application, the number of dead ticks was examined and the mortality was calculated by the following formula:
# Mortality (%)=100×(number of dead ticks/infested ticks before dropping application)
# [4] = tested on: Mouse-infested cat fleas (Ctenocephalides felis); test: Oral administration against mouse-infested cat fleas; settings: 20 mg in 10 mL test solution at 10 mL per 1 kg body weight, 2 days later
# Experimental: Oral Administration Against Mouse-Infested Cat Fleas (Ctenocephalides felis)
# (§3) The present hydrazide compound (5) (20 mg) was dissolved in dimethylformamide (680 mg), and thereto pure water or a corn oil was added to prepare a test solution (10 mL). Said test solution was orally administered to the mouse at a rate of 10 mL per 1 kg of the body weight of the mouse with a gastric sonde. To a control group, a 7% dimethylformamide/corn oil solution alone was orally administered. Each administration was repeated 3 times per group.
# After the oral administration, 20 cat fleas were deposited on each mouse. Two (2) days later, the number of cat fleas was examined and the mortality was calculated by the following formula:
# (§4) Mortality (%)=100×(number of dead cat fleas/number of cat fleas tested)
# [5] = tested on: Mouse-infested ticks (Haemaphysalis longicornis); test: Oral administration against mouse-infested ticks; settings: 20 mg in 10 mL test solution at 10 mL per 1 kg body weight, 2 days after administration
# Experimental: Oral Administration Against Mouse-Infested Ticks (Haemaphysalis longicornis)
# The previous day before oral administration, 30 test ticks (Haemaphysalis longicornis, young ticks) were deposited on a mouse. Before the oral administration, uninfested ticks were removed.
# as §3, with “at the” for “at a”
# Two (2) days after the administration, the number of dead ticks was examined and the mortality was calculated by the following formula:
# Mortality (%)=100×(number of dead ticks/infested ticks before oral administration)
# [6] = tested on: Cat-infested cat fleas (Ctenocephalides felis); test: Dropping application against cat-infested cat fleas; settings: dropping on skin; for Flea control rates (%) at 2 days after the application: vs infestation before application; for Flea control rates (%) at 16 days after the application: vs placebo group
# Experimental: Propping Application Against Cat-Infested Cat Fleas (Ctenocephalides felis)
# The previous day before dropping application, 50 test fleas (cat flea adults) were deposited on a cat. Before the dropping application, infested fleas were counted.
# as §1, with “(0.75 g” for “(0.75”, “cat” for “dog”, “thereon on” for “thereon”, “cat's” for “dog's”
# Two (2) days after the application, the number of living fleas, which were infesting the cats, was examined. When the examination was completed, all infested fleas were removed from the cats.
# Fourteen (14) days later, 50 test fleas were re-deposited on each cat. Two (2) days after the re-deposit, the number of living fleas, which were infesting the cats, was examined. When the examination was completed, all infested fleas were removed from the cats. The infestation rate and control rate were calculated by the following formulae: […]
# (i) Method of calculating infestation rate and control rate at the initial stage (2 days) after the application:
# Infestation rate (%) at X days after application=(number of living fleas at X days/number of living fleas before application)×100
# Control rate (%) at X days after application=(infestation rate of test group before application−infestation rate of test group at X days)/infestation rate of test group before application×100
# (ii) Method of calculating infestation rate and control rate at 16 days after the application:
# Infestation rate (%) at X days after application=(number of living fleas at X days/number of fleas deposited)×100
# Control rate (%) at X days after application=(infestation rate of placebo group at X days−infestation rate of test group at X days)/infestation rate of placebo group at X days×100
# as §2
# [7] = tested on: Mouse-infested cat fleas (Ctenocephalides felis); test: Dropping application against mouse-infested cat fleas; settings: 0.5% w/v solution 200 μL dropwise along dorsal line, 2 days later
# Experimental: Propping Application Against Mouse-Infested Cat Fleas (Ctenocephalides felis)
# The present hydrazide compound (5) (25 mg) was dissolved in propylene carbonate (5 mL) to prepare a 0.5% w/v solution. Said solution (200 μL) was applied dropwise along the dorsal line of a mouse with a pipette. To a control group, propylene carbonate (200 μL) alone was applied. Each application was repeated 3 times per group.
# After the dropping application, 20 cat fleas were deposited on each mouse. Two (2) days later, the number of dead cat fleas was examined and the mortality was calculated by the following formula:
# as §4
smiles,measurement,setting,value
"CC(C)(C)C(=O)NNc1cc(C2=NOC(c3cc(Cl)cc(Cl)c3)(C(F)(F)F)C2)ccc1Cl (centres unmarked) [(8), N′-{5-[5-(3,5-dichlorophenyl)-5-trifluoromethyl-4,5-dihydroisoxazol-3-yl]-2-chlorophenyl}pivalohydrazide]",mortality at 100 mg/m2,[1],≥ 90%
"CCCCCC(=O)NNc1cc(C2=NOC(c3cc(Cl)cc(Cl)c3)(C(F)(F)F)C2)ccc1Cl (centres unmarked) [(12), N′-{5-[5-(3,5-dichlorophenyl)-5-trifluoromethyl-4,5-dihydroisoxazol-3-yl]-2-chlorophenyl}hexanohydrazide]",mortality at 100 mg/m2,[1],≥ 90%
"CCCCC(=O)NNc1cc(C2=NOC(c3cc(Cl)cc(Cl)c3)(C(F)(F)F)C2)ccc1Cl (centres unmarked) [(11), N′-{5-[5-(3,5-dichlorophenyl)-5-trifluoromethyl-4,5-dihydroisoxazol-3-yl]-2-chlorophenyl}pentanohydrazide]",mortality at 100 mg/m2,[1],≥ 90%
"CC(C)CC(=O)NNc1cc(C2=NOC(c3cc(Cl)cc(Cl)c3)(C(F)(F)F)C2)ccc1Cl (centres unmarked) [Compound (5), N′-{2-chloro-5-[5-(3,5-dichlorophenyl)-5-trifluoromethyl-4,5-dihydroisoxazol-3-yl]phenyl}isovalerohydrazide]",Tick control rates (%) at 16 days after the application,[2]; dose 10 mg/kg,93%
same,Tick control rates (%) at 16 days after the application,[2]; dose 20 mg/kg,100%
same,Mortality,[3],≥ 70%
same,Mortality,[4],≥ 90%
same,Mortality,[5],≥ 90%
same,Flea control rates (%) at 2 days after the application,[6]; dose 10 mg/kg,83%
same,Flea control rates (%) at 16 days after the application,[6]; dose 10 mg/kg,92%
same,Flea control rates (%) at 2 days after the application,[6]; dose 20 mg/kg,92%
same,Flea control rates (%) at 16 days after the application,[6]; dose 20 mg/kg,95%
same,Mortality,[7],≥ 70%
same,mortality at 100 mg/m2,[1],≥ 90%
